The values that follow come from patent publication US20250024846A1, “DEVELOPMENT OF FOOD-GRADE FUNGAL FERMENTATES WITH ANTIMICROBIAL ACTIVITY AND THE USE THEREOF” (Wisconsin Alumni Research Foundation, priority 2021, published 2025).

SMILES strings stand for the structures.

The assay deals with Staphylococcus aureus. The experiment in a line: Agar diffusion disc test (zone of inhibition). Type of assay: cell-based. The note with it: positive control, 100 μg/mL (FIG. 2b). How it is done:
Extraction of fermentates. Screening of the antimicrobial activity of NP extracts produced via liquid-liquid extraction with various organic solvents was performed. The tested organic solvents (i.e., ethyl acetate, chloroform, diethyl ether, dichloromethane, tetrahydrofuran, toluene, EMW (mixture of ethyl acetate:methanol:water), CEF (mixture of chloroform:ethyl acetate:formic acid), and BEA (mixture of benzene:ethanol:ammonia hydroxide)) are described in Table 2. 20 mL of NP1 or NP2 was reacted with 20 mL of an organic solvent in 50 mL conical tubes and incubated overnight at 25±2° C. with shaking at 150 rpm. The mixtures were centrifuged at 5000 g and the organic layer was transferred to a new 50 mL conical tube. The extracts were evaporated until dry under gentle airflow. Then, the extracts were reconstituted in 1 mL of methanol and filtered with a sterile 0.45 μm filtration unit. The methanol solution was tested for antimicrobial activity.
(In general: In agar diffusion tests the substance spreads into inoculated agar from a disc or well.)

Broadly, the zone of inhibition is the extent of the growth-free halo in a diffusion test. In the case of `CC1(C)S[C@@H]2[C@H](NC(=O)[C@H](N)c3ccccc3)C(=O)N2[C@H]1C(=O)O` [ampicillin], the zone of inhibition at 100 µg/mL is about 30 mm.
